Legend:
Format in all cases: in vivo
[1] = test system: larvae of the mustard beetle (Phaedon cochleariae); assay: Phaedon larvae test; details: 500 ppm active compound, cabbage leaves (Brassica oleracea) dipped
Procedure: (§1) Phaedon Larvae Test • Solvent: 7 parts by weight of dimethylformamide • Emulsifier: 2 parts by weight of alkylaryl polyglycol ether To produce a suitable preparation of active compound, 1 part by weight of active compound is mixed with the stated amounts of solvents and emulsifier, and the concentrate is diluted with emulsifier-containing water to the desired concentration. Cabbage leaves (Brassica oleracea) are treated by being dipped into the preparation of active compound of the desired concentration and are populated with larvae of the mustard beetle (Phaedon cochleariae) while the leaves are still moist. After the desired period of time, the kill in % is determined. 100% means that all beetle larvae have been killed; 0% means that none of the beetle larvae has been killed.

[2] = test system: caterpillars of the armyworm (Spodoptera frugiperda); assay: Spodoptera frugiperda test; details: 500 ppm active compound, cabbage leaves (Brassica oleracea) dipped
Procedure: as §1, with “Spodoptera frugiperda” for “Phaedon Larvae”, “solvent” for “solvents”, “caterpillars” for “larvae”, “armyworm (Spodoptera frugiperda)” for “mustard beetle (Phaedon cochleariae)”, “caterpillars” for “beetle larvae”

[3] = test system: greenhouse red spider mite (Tetranychus urticae); assay: Tetranychus test (OP-resistant/dip treatment); details: 100 ppm active compound, OP-resistant, infested bean plants (Phaseolus vulgaris) dipped
Procedure: Tetranychus Test (OP-Resistant/dip Treatment)
• Solvent: 7 parts by weight of dimethylformamide • Emulsifier: 2 parts by weight of alkylaryl polyglycol ether
To produce a suitable preparation of active compound, 1 part by weight of active compound is mixed with the stated amounts of solvent and emulsifier, and the concentrate is diluted with emulsifier-containing water to the desired concentration.
Bean plants (Phaseolus vulgaris) which are heavily infested by all stages of the greenhouse red spider mite (Tetranychus urticae) are dipped into a preparation of active compound of the desired concentration.
After the desired period of time, the effect in % is determined. 100% means that all spider mites have been killed; 0% means that none of the spider mites has been killed.

Structure (SMILES): Cc1ccc(-c2ccc(Cl)cc2)cc1C1=C(OC(=O)OCC(C)C)C(C)(C)ON(C)C1=O [Example I-c-1]
- Kill rate in % after 7^d [1]: 100%
- Kill rate in % after 7^d [2]: 100%
- Kill rate in % after 7^d [3]: 98%

— patent publication US7183238B2, “[1,2]-oxazine-3,5-diones” (Bayer CropScience AG, priority 2001, dated 2007)
